Laboratory results reported in patent US20200022963A1, “PHARMACEUTICAL COMPOSITION COMPRISING BETAHISTINE” (Otolanum AG, priority 2017, published 2020).

Experiment: Pharmacokinetic profile after single oral, intranasal and intravenous betahistine in beagle dogs, Example 5
Type: in vivo
Conditions: beagle, dog, in vivo; for concentration at 6 h / concentration at 24 h / concentration at 0 h / concentration at 5 min / concentration at 0.167 h / concentration at 0.333 h / concentration at 0.5 h / concentration at 1 h / concentration at 2 h / concentration at 3 h: Betahistine Plasma Concentration
Experimental: In this study, the pharmacokinetic profile of betahistine was evaluated after a single dose administration of betahistine in male and female beagle dogs (age 5-7 months; weight of 5-11 kg, within a range of 3 kg for each sex) for three routes of administration: oral, intranasal, and intravenous.
On Day 1 of the study, betahistine (BH) was delivered orally at a dose of 12 mg/kg, 24 mg/kg, or 48 mg/kg. Each treatment group comprised 8 animals (4 males and 4 females). For pharmacokinetic assessment, plasma samples were collected prior to dosing, and then at 5, 10, 20 and 30 min, 1, 2, 3, 6, 24 hours after dosing.
On Day 8 of the study, the animals that received oral BH at a dose of 12 mg/kg were administered the test betahistine composition intranasally at a dose of 40 mg betahistine dihydrochloride; the animals that received oral BH at a dose of 24 mg/kg were administered the test betahistine composition intranasally at a dose of 80 mg betahistine dihydrochloride; and the animals that received oral BH at a dose of 48 mg/kg were administered the test betahistine composition intranasally at a dose of 120 mg betahistine dihydrochloride. The test betahistine composition was delivered intranasally in a single dose via an Aptar nasal spray pump device at a total dose level of 40, 80 and 120 mg of betahistine dihydrochloride. Plasma samples were collected prior to dosing, and then at 5, 10, 20 and 30 min, 1, 2, 3, 6, 24 hours after dosing.
On Day 15 of the study, the animals that received oral BH at a dose of 12 mg/kg and the test betahistine composition intranasally at a dose of 40 mg betahistine dihydrochloride were administered a bolus intravenous injection of betahistine at a dose of 0.44 mg/kg. Plasma samples were collected prior to dosing, and then at 5, 10, 20 and 30 min, 1, 2, 3, 6, 24 hours after dosing.
Betahistine 13CD3 dihydrochloride and 2-pyridylacetic acid-D4 hydrochloride were used as respective internal standards. The calibration range for betahistine was 0.05-250 ng/mL and for 2-PAA 2.00-3000 ng/mL using a plasma sample volume of 0.50 mL.
For determination of betahistine, the method involved liquid-liquid extraction, for 2-PAA, the method involved protein precipitation. Plasma samples were prepared for betahistine by extraction under basic conditions with an organic solvent, then the organic phase was dried, reconstituted and transferred for LC/MS-MS analysis. […] Sample analysis was performed using reversed phase chromatography.

[1] = male, inhaled or intranasal, 5 mg/kg
[2] = male, inhaled or intranasal, 9.8 mg/kg
[3] = male, inhaled or intranasal, 15.8 mg/kg

In the case of `CNCCc1ccccn1` [betahistine], the concentration at 6 h (female, po, 24 mg/kg) is reported as 0.342 ng/mL, the concentration at 24 h (female, po, 24 mg/kg) is reported as 0 ng/mL and the “AUC(0-6)/D” value (female, po, 48 mg/kg) is reported as 1.61 ± 0.528 hr*ng/mL/(mg/kg). For the same compound, the AUC(0-inf) (female, po, 48 mg/kg) was 69.2 ± 23.3 ng·h/mL, the Cmax (female, po, 48 mg/kg) was 33.5 ± 9.11 ng/mL and the Cmax/D (female, po, 48 mg/kg) was 0.697 ± 0.190 ng/mL/(mg/kg). For the same compound, the “Oral AUC/dose” value (female, po, 48 mg/kg) was 1.61 (h · ng/mL)/(mg/kg), the Tmax (female, po, 48 mg/kg) was 60 min and the half-life (female, po, 48 mg/kg) was 35.9 min. For the same compound, the AUC(0-t) (female, po, 48 mg/kg, AUC(0-6)) was 77.5 ± 25.4 ng·h/mL, the AUC(0-t) (female, po, 48 mg/kg, AUC(0-t)) was 77.5 ± 25.4 ng·h/mL and the concentration at 0 h (female, po, 48 mg/kg) was 0 ng/mL. For the same compound, the concentration at 5 min (female, po, 48 mg/kg) was 9.87 ng/mL, the concentration at 0.167 h (female, po, 48 mg/kg) was 9.24 ng/mL and the concentration at 0.333 h (female, po, 48 mg/kg) was 11.5 ng/mL. It also gave a concentration at 0.5 h (female, po, 48 mg/kg) of 19.4 ng/mL, a concentration at 1 h (female, po, 48 mg/kg) of 32.8 ng/mL and a concentration at 2 h (female, po, 48 mg/kg) of 21.3 ng/mL. The concentration at 3 h (female, po, 48 mg/kg) was 10.1 ng/mL, the concentration at 6 h (female, po, 48 mg/kg) was 0.64 ng/mL and the concentration at 24 h (female, po, 48 mg/kg) was 0 ng/mL. For the same compound, the AUC(0-inf) [1] was 131 ng·h/mL, the “AUC(0-t)/D” value [1] was 36.4 ± 24.4 hr*ng/mL/(mg/kg) and the Cmax [1] was 598 ng/mL. The Cmax/D [1] was 120 ± 90.1 ng/mL/(mg/kg), the “Intranasal AUC/dose” value [1] was 36.4 (h · ng/mL)/(mg/kg) and the Tmax [1] was 10.2 min. It also gave an AUC(0-t) (male, inhaled or intranasal, 5 mg/kg, AUC(0-6)) of 178 ± 122 ng·h/mL, an AUC(0-t) (male, inhaled or intranasal, 5 mg/kg, AUC(0-t)) of 182 ± 122 ng·h/mL and an AUC(0-inf) [2] of 202 ± 156 ng·h/mL. For the same compound, the “AUC(0-t)/D” value [2] was 17.5 ± 14.3 hr*ng/mL/(mg/kg), the Cmax [2] was 735 ng/mL and the Cmax/D [2] was 75.0 ± 56.9 ng/mL/(mg/kg). For the same compound, the “Intranasal AUC/dose” value [2] was 17.5 (h · ng/mL)/(mg/kg), the Tmax [2] was 7.8 min and the AUC(0-t) (male, inhaled or intranasal, 9.8 mg/kg, AUC(0-6)) was 168 ± 140 ng·h/mL. The AUC(0-t) (male, inhaled or intranasal, 9.8 mg/kg, AUC(0-t)) was 172 ± 140 ng·h/mL, the “AUC(0-t)/D” value [3] was 12.6 ± 4.97 hr*ng/mL/(mg/kg) and the Cmax [3] was 765 ng/mL. The Cmax/D [3] was 48.4 ± 23.7 ng/mL/(mg/kg), the “Intranasal AUC/dose” value [3] was 12.6 (h · ng/mL)/(mg/kg) and the Tmax [3] was 7.8 min. The AUC(0-t) (male, inhaled or intranasal, 15.8 mg/kg, AUC(0-6)) was 194 ± 79.8 ng·h/mL, the AUC(0-t) (male, inhaled or intranasal, 15.8 mg/kg, AUC(0-t)) was 199 ± 78.5 ng·h/mL and the AUC(0-inf) (male, iv, 0.44 mg/kg) was 18.4 ng·h/mL. The “AUC(0-t)/D” value (male, iv, 0.44 mg/kg) was 44.3 ± 11.5 hr*ng/mL/(mg/kg), the Cmax (male, iv, 0.44 mg/kg) was 58.2 ng/mL and the Cmax/D (male, iv, 0.44 mg/kg) was 132 ng/mL/(mg/kg). The Tmax (male, iv, 0.44 mg/kg) was 4.8 min, the Vd (male, iv, 0.44 mg/kg) was 32.1 L/kg and the clearance (male, iv, 0.44 mg/kg) was 398 mL/min/kg. For the same compound, the half-life (male, iv, 0.44 mg/kg) was 55.8 min, the AUC(0-t) (male, iv, 0.44 mg/kg, AUC(0-6)) was 19.5 ng·h/mL and the AUC(0-t) (male, iv, 0.44 mg/kg, AUC(0-t)) was 19.5 ng·h/mL. It also gave a concentration at 0 h (male, iv, 0.44 mg/kg) of 0.11 ng/mL, a concentration at 5 min (male, iv, 0.44 mg/kg) of 58.2 ng/mL and a concentration at 0.167 h (male, iv, 0.44 mg/kg) of 29.1 ng/mL. For the same compound, the concentration at 0.333 h (male, iv, 0.44 mg/kg) was 8.06 ng/mL, the concentration at 0.5 h (male, iv, 0.44 mg/kg) was 5.57 ng/mL and the concentration at 1 h (male, iv, 0.44 mg/kg) was 0.349 ng/mL. For the same compound, the concentration at 2 h (male, iv, 0.44 mg/kg) was 0.993 ng/mL, the concentration at 3 h (male, iv, 0.44 mg/kg) was 0.081 ng/mL and the concentration at 6 h (male, iv, 0.44 mg/kg) was 1.05 ng/mL. For the same compound, the concentration at 24 h (male, iv, 0.44 mg/kg) was 0 ng/mL, the “AUC(0-6)/D” value (male, po, 12 mg/kg) was 1.04 ± 0.168 hr*ng/mL/(mg/kg) and the AUC(0-inf) (male, po, 12 mg/kg) was 13.3 ng·h/mL. For the same compound, the Cmax (male, po, 12 mg/kg) was 18.9 ± 9.99 ng/mL, the Cmax/D (male, po, 12 mg/kg) was 1.58 ± 0.833 ng/mL/(mg/kg) and the “Oral AUC/dose” value (male, po, 12 mg/kg) was 1.04 (h · ng/mL)/(mg/kg). For the same compound, the Tmax (male, po, 12 mg/kg) was 30 min, the half-life (male, po, 12 mg/kg) was 18.8 min and the AUC(0-t) (male, po, 12 mg/kg, AUC(0-6)) was 13 ± 2.23 ng·h/mL. For the same compound, the AUC(0-t) (male, po, 12 mg/kg, AUC(0-t)) was 12.5 ± 2.02 ng·h/mL, the concentration at 0 h (male, po, 12 mg/kg) was 0 ng/mL and the concentration at 5 min (male, po, 12 mg/kg) was 1.35 ng/mL. The concentration at 0.167 h (male, po, 12 mg/kg) was 2.73 ng/mL, the concentration at 0.333 h (male, po, 12 mg/kg) was 5.8 ng/mL and the concentration at 0.5 h (male, po, 12 mg/kg) was 18.9 ng/mL. For the same compound, the concentration at 1 h (male, po, 12 mg/kg) was 5.65 ng/mL, the concentration at 2 h (male, po, 12 mg/kg) was 0.457 ng/mL and the concentration at 3 h (male, po, 12 mg/kg) was 0.036 ng/mL. The concentration at 6 h (male, po, 12 mg/kg) was 0.016 ng/mL, the concentration at 24 h (male, po, 12 mg/kg) was 0.021 ng/mL and the “AUC(0-6)/D” value (male, po, 24 mg/kg) was 1.44 ± 0.714 hr*ng/mL/(mg/kg). For the same compound, the AUC(0-inf) (male, po, 24 mg/kg) was 34.6 ± 17.1 ng·h/mL, the Cmax (male, po, 24 mg/kg) was 38.3 ± 28.1 ng/mL and the Cmax/D (male, po, 24 mg/kg) was 1.60 ± 1.17 ng/mL/(mg/kg). For the same compound, the “Oral AUC/dose” value (male, po, 24 mg/kg) was 1.44 (h · ng/mL)/(mg/kg), the Tmax (male, po, 24 mg/kg) was 60 min and the half-life (male, po, 24 mg/kg) was 47.1 min. It also gave an AUC(0-t) (male, po, 24 mg/kg, AUC(0-6)) of 34.5 ± 17.2 ng·h/mL, an AUC(0-t) (male, po, 24 mg/kg, AUC(0-t)) of 34.5 ± 17.1 ng·h/mL and a concentration at 0 h (male, po, 24 mg/kg) of 0 ng/mL. The concentration at 5 min (male, po, 24 mg/kg) was 4.69 ng/mL, the concentration at 0.167 h (male, po, 24 mg/kg) was 5.05 ng/mL and the concentration at 0.333 h (male, po, 24 mg/kg) was 23.9 ng/mL. The concentration at 0.5 h (male, po, 24 mg/kg) was 17.8 ng/mL, the concentration at 1 h (male, po, 24 mg/kg) was 26.9 ng/mL and the concentration at 2 h (male, po, 24 mg/kg) was 2.08 ng/mL. For the same compound, the concentration at 3 h (male, po, 24 mg/kg) was 0.611 ng/mL, the concentration at 6 h (male, po, 24 mg/kg) was 0.078 ng/mL and the concentration at 24 h (male, po, 24 mg/kg) was 0 ng/mL. For the same compound, the “AUC(0-6)/D” value (male, po, 48 mg/kg) was 2.73 ± 0.590 hr*ng/mL/(mg/kg), the AUC(0-inf) (male, po, 48 mg/kg) was 133 ng·h/mL and the Cmax/D (male, po, 48 mg/kg) was 2.13 ± 0.628 ng/mL/(mg/kg). The “Oral AUC/dose” value (male, po, 48 mg/kg) was 2.73 (h · ng/mL)/(mg/kg), the Tmax (male, po, 48 mg/kg) was 60 min and the half-life (male, po, 48 mg/kg) was 31.3 min. For the same compound, the AUC(0-t) (male, po, 48 mg/kg, AUC(0-6)) was 131 ± 28.3 ng·h/mL, the AUC(0-t) (male, po, 48 mg/kg, AUC(0-t)) was 131 ± 28.3 ng·h/mL and the concentration at 0 h (male, po, 48 mg/kg) was 0 ng/mL. For the same compound, the concentration at 5 min (male, po, 48 mg/kg) was 14.3 ng/mL, the concentration at 0.167 h (male, po, 48 mg/kg) was 35.7 ng/mL and the concentration at 0.333 h (male, po, 48 mg/kg) was 14.3 ng/mL. For the same compound, the concentration at 0.5 h (male, po, 48 mg/kg) was 33.7 ng/mL, the concentration at 1 h (male, po, 48 mg/kg) was 80.2 ng/mL and the concentration at 2 h (male, po, 48 mg/kg) was 21.7 ng/mL. For the same compound, the concentration at 3 h (male, po, 48 mg/kg) was 3 ng/mL, the concentration at 6 h (male, po, 48 mg/kg) was 0.238 ng/mL and the concentration at 24 h (male, po, 48 mg/kg) was 0 ng/mL.
